In patent US11648254B2 (Kumquat Biosciences Inc., priority 2021, dated 2023):
Like-named read-outs stand apart in the source and are kept apart here.

Assays:
[1] = test system: NCI-H1975 cells (EGFR T790M L858R); assay: EGFR-SOS cellular inhibition assay (CellTiter-Glo, 3D); format: cell-based; details: Homo sapiens
SOS1 = SOS1 (Homo sapiens (Human), UniProt Q07889); assay: Ras-SOS interaction assay (HTRF); format: biochemical
[2] = test system: MIA PaCa-2 cells (K-Ras G12C); assay: Ras-SOS cellular growth inhibition assay (CellTiter-Glo, 3D); format: cell-based; details: Homo sapiens
Summary of the method: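 Growth read by CellTiter-Glo luminescence about 5 days after dosing with 3-fold dilutions (9 points), added one day post-seeding. Cells: MIA PaCa-2, 3D culture on ultra-low-attachment surface, medium DMEM/Ham's F12 plus 10% FCS and 2.5% horse serum; IC50 by four-parameter fit.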

[3] = 120 h, NCI-H1975, 3D proliferation, about 5 days, read-out: Bio-Cell-Prolif-3D (H1975 IC50)
[4] = K-RasG13D utilized, read-out: IC50 inhibition of SOS
[5] = K-RasG13D, read-out: IC50 value against SOS1
[6] = MIA PaCa-2, 120 h, MIA PaCa-2, 3D proliferation, about 5 days, read-out: Bio-Cell-Prolif-3D (MiaPaca2 IC50)
[7] = NCI-H1975, EGFR T790M L858R, read-out: IC50 in inhibiting growth of NCI-H1975 cell line
[8] = MIA PaCa-2, MIA PaCa-2, read-out: IC50 in inhibiting MIA PaCa-2 cell growth

Sequence of SOS1 (Q07889 564-1049): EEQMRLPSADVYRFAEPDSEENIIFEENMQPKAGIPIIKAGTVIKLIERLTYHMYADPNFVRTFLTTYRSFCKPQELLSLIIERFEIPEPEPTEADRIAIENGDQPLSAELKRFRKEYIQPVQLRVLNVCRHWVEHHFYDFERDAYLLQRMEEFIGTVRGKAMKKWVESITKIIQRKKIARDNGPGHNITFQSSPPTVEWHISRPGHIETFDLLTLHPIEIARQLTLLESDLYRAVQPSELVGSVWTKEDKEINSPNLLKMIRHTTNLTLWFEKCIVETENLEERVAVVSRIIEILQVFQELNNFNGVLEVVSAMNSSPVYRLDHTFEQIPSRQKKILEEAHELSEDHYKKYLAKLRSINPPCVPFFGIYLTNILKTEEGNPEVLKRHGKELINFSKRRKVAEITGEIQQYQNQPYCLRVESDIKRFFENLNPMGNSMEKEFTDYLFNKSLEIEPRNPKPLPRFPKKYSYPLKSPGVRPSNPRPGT

IC50 [1, 3] [nM]	IC50 (SOS1; [4]) [nM]	IC50 (SOS1; [5]) [nM]	IC50 [2, 6] [nM]	IC50 [1, 7] [nM]	IC50 [2, 8] [nM]	Compound
≤ 1000	< 100	< 50	≤ 1000	< 500	< 500	Cc1nc(N[C@H](C)c2cccc(C(F)F)c2F)c2cc(C3(C(F)F)CC3)c(OC3CN(C)C3)nc2n1 [Compound 190, (R)-N-(1-(3-(difluoromethyl)-2-fluorophenyl)ethyl)-6-(1-(difluoromethyl)cyclopropyl)-2-methyl-7-((1-methylazetidin-3-yl)oxy)pyrido[2,3-d] pyrimidin-4-amine]
≤ 1000	< 100	< 50	≤ 1000	< 500	< 500	COc1nc2nc(C)nc(N[C@H](C)c3cccc(C(F)(F)C(C)(C)O)c3F)c2cc1N1CCS(=O)(=O)CC1 [Compound 169, (R)-4-(4-((1-(3-(1,1-difluoro-2-hydroxy-2-methylpropyl)-2-fluorophenyl)ethyl)amino)-7-methoxy-2-methylpyrido[2,3-d]pyrimidin-6-yl)thiomorpholine 1,1-dioxide]
≤ 1000	< 100	< 50	≤ 1000	< 500	< 500	Cc1nc(N[C@H](C)c2cccc(C(F)(F)F)c2F)c2cc(C3CCN(C(C)C)CC3)c(Cl)nc2n1 [Compound 391, (R)-7-chloro-N-(1-(2-fluoro-3-(trifluoromethyl)phenyl)ethyl)-6-(1-isopropylpiperidin-4-yl)-2-methylpyrido[2,3-d] pyrimidin-4-amine]
≤ 1000	< 100	< 50	≤ 1000	< 500		COc1nc2nc(C)nc(N[C@H](C)c3cccc(C(F)(F)C(C)(C)O)c3F)c2cc1C1CCS(=O)(=O)CC1 [Compound 321, (R)-4-(4-((1-(3-(1,1-difluoro-2-hydroxy-2-methylpropyl)-2-fluorophenyl)ethyl)amino)-7-methoxy-2-methylpyrido[2,3-d]pyrimidin-6-yl)tetrahydro-2H-thiopyran 1,1-dioxide]
≤ 1000	< 100	< 50	1000 to 10000			Cc1nc(N[C@H](C)c2cccc(C(F)F)c2F)c2cc(C3CCN(C)CC3)c(OC3CN(C)C3)nc2n1 [Compound 252, (R)-N-(1-(3-(difluoromethyl)-2-fluorophenyl)ethyl)-2-methyl-7-((1-methylazetidin-3-yl)oxy)-6-(1-methylpiperidin-4-yl)pyrido[2,3-d]pyrimidin-4-amine]
≤ 1000	< 100	< 50	1000 to 10000	< 500		COc1nc2nc(C)nc(N[C@H](C)c3cccc(C(F)(F)F)c3F)c2cc1C1CCN(C(=O)[C@@H]2COCCO2)CC1 [Compound 301, ((S)-1,4-dioxan-2-yl)(4-(4-(((R)-1-(2-fluoro-3-(trifluoromethyl)phenyl)ethyl)amino)-7-methoxy-2-methylpyrido[2,3-d]pyrimidin-6-yl)piperidin-1-yl)methanone]
≤ 1000	< 100	< 50	≤ 1000	< 500	< 500	COc1nc2nc(C)nc(N[C@H](C)c3cccc(C(F)F)c3F)c2cc1[C@@H]1CCCN(C)C1 [Compound 134, N-((R)-1-(3-(difluoromethyl)-2-fluorophenyl)ethyl)-7-methoxy-2-methyl-6-((S)-1-methylpiperidin-3-yl)pyrido[2,3-d]pyrimidin-4-amine]

The next lines start with the molecule.

Compound	IC50 [1, 3] [nM]	IC50 (SOS1; [4]) [nM]	IC50 (SOS1; [5]) [nM]	IC50 [2, 6] [nM]	IC50 [1, 7] [nM]	IC50 [2, 8] [nM]
Cc1nc(N[C@H](C)c2cccc(C(F)F)c2F)c2cc(C3CCN(C)CC3)c(OC3CNC3)nc2n1 [Compound 253, (R)-7-(azetidin-3-yloxy)-N-(1-(3-(difluoromethyl)-2-fluorophenyl)ethyl)-2-methyl-6-(1-methylpiperidin-4-yl)pyrido[2,3-d] pyrimidin-4-amine]	1000 to 10000	< 100	< 50	1000 to 10000		
Cc1nc(N[C@H](C)c2cccc(C(F)F)c2F)c2cc(C3(C#N)CC3)c(N3CCN(C)CC3)nc2n1 [Compound 295, (R)-1-(4-((1-(3-(difluoromethyl)-2-fluorophenyl)ethyl)amino)-2-methyl-7-(4-methylpiperazin-1-yl)pyrido[2,3-d]pyrimidin-6-yl)cyclopropanecarbonitrile]	≤ 1000	< 100	< 50	≤ 1000	< 500	< 500
COc1nc2nc(C)nc(N[C@H](C)c3cccc(C(F)(F)CCC4CN(C(C)C)C4)c3F)c2cc1C1(C#N)CC1 [Compound 176, (R)-1-(4-((1-(3-(1,1-difluoro-3-(1-isopropylazetidin-3-yl)propyl)-2-fluorophenyl)ethyl)amino)-7-methoxy-2-methylpyrido[2,3-d]pyrimidin-6-yl)cyclopropane-1-carbonitrile]	≤ 1000	< 100	< 50	≤ 1000	< 500	< 500
COc1nc2nc(C)nc(N[C@H](C)c3cccc(C(F)(F)F)c3F)c2cc1N1CCN(C(=O)CO)CC1 [Compound 313, (R)-1-(4-(4-((1-(2-fluoro-3-(trifluoromethyl)phenyl)ethyl)amino)-7-methoxy-2-methylpyrido[2,3-d]pyrimidin-6-yl)piperazin-1-yl)-2-hydroxyethan-1-one]	≤ 1000	< 100	< 50	≤ 1000	< 500	< 500
Cc1nc(N[C@H](C)c2cccc(C(F)(F)F)c2C)c2cc(N3CCS(=O)(=O)CC3)c(Cl)nc2n1 [Compound 390, (R)-4-(7-chloro-2-methyl-4-((1-(2-methyl-3-(trifluoromethyl)phenyl)ethyl)amino)pyrido[2,3-d]pyrimidin-6-yl) thiomorpholine 1,1-dioxide]	≤ 1000	< 100	< 50	≤ 1000	< 500	< 500
COc1nc2ncnc(N[C@H](C)c3cccc(C(F)(F)F)c3C)c2cc1N1CCS(=O)(=O)CC1 [Compound 381, (R)-4-(7-methoxy-4-((1-(2-methyl-3-(trifluoromethyl)phenyl)ethyl)amino)pyrido[2,3-d]pyrimidin-6-yl) thiomorpholine 1,1-dioxide]	≤ 1000	< 100	< 50	≤ 1000	< 500	< 500
Cc1nc(N[C@H](C)c2cccc(C(F)F)c2F)c2cc(C3CCN(C(C)C)CC3)c(OC3CNC3)nc2n1 [Compound 340, (R)-7-(azetidin-3-yloxy)-N-(1-(3-(difluoromethyl)-2-fluorophenyl)ethyl)-6-(1-isopropylpiperidin-4-yl)-2-methylpyrido[2,3-d]pyrimidin-4-amine]	1000 to 10000	< 100	< 50	1000 to 10000		
COc1nc2nc(C)nc(N[C@H](C)c3cccc(CC(F)F)c3F)c2cc1C1CCS(=O)(=O)CC1 [Compound 147, (R)-4-(4-((1-(3-(2,2-difluoroethyl)-2-fluorophenyl)ethyl)amino)-7-methoxy-2-methylpyrido[2,3-d]pyrimidin-6-yl)tetrahydro-2H-thiopyran 1,1-dioxide]	≤ 1000	< 100	< 50	≤ 1000	< 500	
COc1nc2nc(OCC3CN(C)C3)nc(N[C@H](C)c3cccc(C(F)F)c3F)c2cc1C1(C#N)CC1 [Compound 203, (R)-1-(4-((1-(3-(difluoromethyl)-2-fluorophenyl)ethyl)amino)-7-methoxy-2-((1-methylazetidin-3-yl)methoxy)pyrido[2,3-d]pyrimidin-6-yl)cyclopropane-1-carbonitrile]	≤ 1000	< 100	< 50	1000 to 10000		
Cc1nc(N[C@H](C)c2cccc(C(F)(F)CO)c2F)c2cc(C3(C#N)CC3)c(N3CCN(C(C)C)CC3)nc2n1 [Compound 347, (R)-1-(4-((1-(3-(1,1-difluoro-2-hydroxyethyl)-2-fluorophenyl)ethyl)amino)-7-(4-isopropylpiperazin-1-yl)-2-methylpyrido[2,3-d]pyrimidin-6-yl)cyclopropane-1-carbonitrile]	≤ 1000	< 100	< 50	≤ 1000	< 500	< 500
Cc1nc(N[C@H](C)c2cccc(C(F)(F)C(C)O)c2F)c2cc(C3(C#N)CC3)c(Cl)nc2n1 (stereo in doubt) [Compound 333, 1-(7-chloro-4-(((R)-1-(3-((S)-1,1-difluoro-2-hydroxypropyl)-2-fluorophenyl)ethyl)amino)-2-methylpyrido[2,3-d]pyrimidin-6-yl)cyclopropane-1-carbonitrile]	≤ 1000	< 100	< 50	≤ 1000	< 500	< 500
Cc1nc(N[C@H](C)c2cccc(C(F)(F)CO)c2)c2cc(C3(C#N)CC3)c(Cl)nc2n1 [Compound 194, (R)-1-(7-chloro-4-((1-(3-(1,1-difluoro-2-hydroxyethyl)phenyl)ethyl)amino)-2-methylpyrido[2,3-d]pyrimidin-6-yl)cyclopropane-1-carbonitrile]	≤ 1000	< 100	< 50	≤ 1000		< 500
